Assay results taken from patent US20100272825A1, “METHOD OF DISINFECTING CARCASSES” (JOHNSONDIVERSEY, INC., priority 2006, published 2010).
Values joined by “and” are separate entries in the source; they are usually repeats but may differ in a detail not shown here. Equal values may be shown once.

How the values were obtained:
[1] = system: Salmonella typhi, ATCC # 6539; test: Sanitizing effectiveness: modified Germicidal and Detergent Sanitizing Action of Disinfectants, A.O.A.C.; assay type: cell-based; settings: 1 ppm Chlorine Dioxide; for Survivors: initial 116,000,000 org/ml
Description: (§1) The invention will be further appreciated in light of the following detailed examples. In these examples, a chlorine dioxide solution was obtained by forming chlorous acid from an ion exchange resin, running this through a platinum catalyst to form chlorine dioxide. The chlorine dioxide obtained from the ion exchange resin catalyst combination was generally at about 650-750 ppm at a pH of about 2, which was then diluted with an acid solution of sodium bisulfate to reach the desired use concentration as set forth in the examples.

[2] = system: Salmonella typhi, ATCC # 6359; test: AOAC Chlorine (Available) in Disinfectants, subculture series; assay type: cell-based; set-up: key to Subculture Series 1, growth / Subculture Series 10, growth / Subculture Series 2, growth / Subculture Series 3, growth / Subculture Series 4, growth / Subculture Series 5, growth / Subculture Series 6, growth / Subculture Series 7, growth / Subculture Series 8, growth / Subculture Series 9, growth: + = growth; − = no growth
Description: as §1

[3] = pH 2.0, contact 10 seconds 25° C.
[4] = pH 2.5, contact 10 seconds 25° C.
[5] = pH 3.0, contact 10 seconds 25° C.
[6] = pH 3.5, contact 10 seconds 25° C.
[7] = pH 4.0, contact 10 seconds 25° C.

[O][Cl+][O-] [Chlorine Dioxide, chlorine dioxide]
% Reduction [1, 3]: 99.103%
Survivors [1, 3]: 1,040,000
% Reduction [1, 4]: 99.207%
Survivors [1, 4]: 920,000
% Reduction [1, 5]: <97.845%
Survivors [1, 5]: >2,500,000
% Reduction [1, 6]: <97.845%
Survivors [1, 6]: >2,500,000
% Reduction [1, 7]: <97.845%
Survivors [1, 7]: >2,500,000
germicidal efficacy expressed as equivalent concentration of sodium hypochlorite ([2]; 15 ppm of ClO2 at pH 2.5): 200 ppm
germicidal efficacy expressed as equivalent concentration of sodium hypochlorite ([2]; 15 ppm of ClO2 at pH 3.75): > 100 ppm and < 200 ppm
Subculture Series 1, growth ([2]; ClO2 12 ppm, pH = 2.50): −
Subculture Series 2, growth ([2]; ClO2 12 ppm, pH = 2.50): −
Subculture Series 3, growth ([2]; ClO2 12 ppm, pH = 2.50): −
Subculture Series 4, growth ([2]; ClO2 12 ppm, pH = 2.50): −
Subculture Series 5, growth ([2]; ClO2 12 ppm, pH = 2.50): +
Subculture Series 6, growth ([2]; ClO2 12 ppm, pH = 2.50): +
Subculture Series 7, growth ([2]; ClO2 12 ppm, pH = 2.50): +
Subculture Series 8, growth ([2]; ClO2 12 ppm, pH = 2.50): +
Subculture Series 9, growth ([2]; ClO2 12 ppm, pH = 2.50): +
Subculture Series 10, growth ([2]; ClO2 12 ppm, pH = 2.50): +
Subculture Series 1, growth ([2]; ClO2 12 ppm, pH = 3.82): −
Subculture Series 2, growth ([2]; ClO2 12 ppm, pH = 3.82): −
Subculture Series 3, growth ([2]; ClO2 12 ppm, pH = 3.82): +
Subculture Series 4, growth ([2]; ClO2 12 ppm, pH = 3.82): +
Subculture Series 5, growth ([2]; ClO2 12 ppm, pH = 3.82): +
Subculture Series 6, growth ([2]; ClO2 12 ppm, pH = 3.82): +
Subculture Series 7, growth ([2]; ClO2 12 ppm, pH = 3.82): +
Subculture Series 8, growth ([2]; ClO2 12 ppm, pH = 3.82): +
Subculture Series 9, growth ([2]; ClO2 12 ppm, pH = 3.82): +
Subculture Series 10, growth ([2]; ClO2 12 ppm, pH = 3.82): +
Subculture Series 1, growth ([2]; ClO2 15 ppm, pH = 2.50): −
Subculture Series 2, growth ([2]; ClO2 15 ppm, pH = 2.50): −
Subculture Series 3, growth ([2]; ClO2 15 ppm, pH = 2.50): −
Subculture Series 4, growth ([2]; ClO2 15 ppm, pH = 2.50): −
Subculture Series 5, growth ([2]; ClO2 15 ppm, pH = 2.50): −
Subculture Series 6, growth ([2]; ClO2 15 ppm, pH = 2.50): −
Subculture Series 7, growth ([2]; ClO2 15 ppm, pH = 2.50): −
Subculture Series 8, growth ([2]; ClO2 15 ppm, pH = 2.50): −
Subculture Series 9, growth ([2]; ClO2 15 ppm, pH = 2.50): +
Subculture Series 10, growth ([2]; ClO2 15 ppm, pH = 2.50): +
Subculture Series 1, growth ([2]; ClO2 15 ppm, pH = 3.75): −
Subculture Series 2, growth ([2]; ClO2 15 ppm, pH = 3.75): −
Subculture Series 3, growth ([2]; ClO2 15 ppm, pH = 3.75): −
Subculture Series 4, growth ([2]; ClO2 15 ppm, pH = 3.75): −
Subculture Series 5, growth ([2]; ClO2 15 ppm, pH = 3.75): −
Subculture Series 6, growth ([2]; ClO2 15 ppm, pH = 3.75): +
Subculture Series 7, growth ([2]; ClO2 15 ppm, pH = 3.75): +
Subculture Series 8, growth ([2]; ClO2 15 ppm, pH = 3.75): +
Subculture Series 9, growth ([2]; ClO2 15 ppm, pH = 3.75): +
Subculture Series 10, growth ([2]; ClO2 15 ppm, pH = 3.75): +

[Na+].[O-]Cl [NaOCl, sodium hypochlorite, reference compound]
Subculture Series 1, growth ([2]; NaOCl 50 ppm): −
Subculture Series 2, growth ([2]; NaOCl 50 ppm): +
Subculture Series 3, growth ([2]; NaOCl 50 ppm): +
Subculture Series 4, growth ([2]; NaOCl 50 ppm): +
Subculture Series 5, growth ([2]; NaOCl 50 ppm): +
Subculture Series 1, growth ([2]; NaOCl 100 ppm): −
Subculture Series 2, growth ([2]; NaOCl 100 ppm): −
Subculture Series 3, growth ([2]; NaOCl 100 ppm): −
Subculture Series 4, growth ([2]; NaOCl 100 ppm): −
Subculture Series 5, growth ([2]; NaOCl 100 ppm): +
Subculture Series 6, growth ([2]; NaOCl 100 ppm): +
Subculture Series 7, growth ([2]; NaOCl 100 ppm): +
Subculture Series 8, growth ([2]; NaOCl 100 ppm): +
Subculture Series 9, growth ([2]; NaOCl 100 ppm): +
Subculture Series 10, growth ([2]; NaOCl 100 ppm): +
Subculture Series 1, growth ([2]; NaOCl 200 ppm): −
Subculture Series 2, growth ([2]; NaOCl 200 ppm): −
Subculture Series 3, growth ([2]; NaOCl 200 ppm): −
Subculture Series 4, growth ([2]; NaOCl 200 ppm): −
Subculture Series 5, growth ([2]; NaOCl 200 ppm): −
Subculture Series 6, growth ([2]; NaOCl 200 ppm): −
Subculture Series 7, growth ([2]; NaOCl 200 ppm): −
Subculture Series 8, growth ([2]; NaOCl 200 ppm): +
Subculture Series 9, growth ([2]; NaOCl 200 ppm): +
Subculture Series 10, growth ([2]; NaOCl 200 ppm): +
